# From ChEMBL document CHEMBL4513161, “CO-ADD screening of MMV (CH) - Pandemic Response Box” (2021)
# Structures can show the parent of a compound that is named as a salt.
# Assays:
# [1] = test system: Candida albicans; test: microbe, parasite or virus in culture; conditions: ATCC 90028, ASSAY_TEST Inhibition of Fungal Growth, detection method Absorption (OD530), plate type 384well, NBS, CORNING #3640
# Description: Antifungal activity against Candida albicans ATCC 90028 (CO-ADD:FG_001); MIC in YNB media using NBS plates, by OD630
# [2] = test system: Klebsiella pneumoniae; test: microbe, parasite or virus in culture; conditions: ATCC 700603, 18 h, ASSAY_TEST Inhibition of Bacterial Growth, detection method Absorption (OD600), MEDIA CAMHB, plate type 384well, NBS, CORNING #3640
# Description: Antibacterial activity against Klebsiella pneumoniae MDR ATCC 70063 (CO-ADD:GN_003); MIC in CAMBH media using NBS plates, by OD(600)
# [3] = test system: Escherichia coli; test: microbe, parasite or virus in culture; conditions: ATCC 25922, 18 h, ASSAY_TEST Inhibition of Bacterial Growth, detection method Absorption (OD600), MEDIA CAMHB, plate type 384well, NBS, CORNING #3640
# Description: Antibacterial activity against Escherichia coli ATCC 25922 (CO-ADD:GN_001); MIC in CAMBH media using NBS plates, by OD(600)
# [4] = test system: HEK293; test: cells; format: functional, Homo sapiens, ATCC CRL1573; conditions: Homo sapiens, ATCC CRL1573, HEK293; ASSAY_TEST Inhibition of Cell Viability; detection method Resazurin; Fluorescence (ex560/em590); MEDIA DMEM with 10% FBS; plate type 384well; TC; CORNING #3712; time 18 hr; read-out: CC50
# [5] = test system: Cryptococcus neoformans
# Description: Antifungal activity against Cryptococcus neoformans H99 ATCC 208821 (CO-ADD:FG_002); MIC in YNB media using NBS plates, by Resazurin OD(600-570)
# [6] = test system: Pseudomonas aeruginosa; test: Antibacterial activity against Pseudomonas aeruginosa PAO397 [PAO1 d(mexAB-oprM) d(mexCD-oprJ) d(mexEF-oprN) d(mexJKL) d(mexXY) d(opmH)] (CO-ADD:GN_211); MIC in CAMBH media using NBS plates, by OD(600); format: functional; conditions: ASSAY_TEST Inhibition of Bacterial Growth, detection method Absorption (OD600), MEDIA CAMHB, plate type 384well, CORNING #3640, time 18 hr
# [7] = test system: Acinetobacter baumannii; test: microbe, parasite or virus in culture; conditions: ATCC 19606, 18 h, ASSAY_TEST Inhibition of Bacterial Growth, detection method Absorption (OD600), MEDIA CAMHB, plate type 384well, NBS, CORNING #3640
# Description: Antibacterial activity against Acinetobacter baumannii ATCC 19606 (CO-ADD:GN_034); MIC in CAMBH media using NBS plates, by OD600
# [8] = test system: Pseudomonas aeruginosa; test: microbe, parasite or virus in culture; conditions: ATCC 27853, 18 h, ASSAY_TEST Inhibition of Bacterial Growth, detection method Absorption (OD600), MEDIA CAMHB, plate type 384well, NBS, CORNING #3640
# Description: Antibacterial activity against Pseudomonas aeruginosa ATCC 27853 (CO-ADD:GN_042); MIC in CAMBH media using NBS plates, by OD(600)
# [9] = test system: Staphylococcus aureus; test: microbe, parasite or virus in culture; conditions: ATCC 43300, 18 h, ASSAY_TEST Inhibition of Bacterial Growth, detection method Absorption (OD600), MEDIA CAMHB, plate type 384well, NBS, CORNING #3640
# Description: Antibacterial activity against Staphylococcus aureus MRSA ATCC 43300 (CO-ADD:GP_020); MIC in CAMBH media, using NBS plates, by OD(600)
SMILES,MIC [1],MIC [2],MIC [3],CC50 [4],MIC [5],MIC [6],MIC [7],MIC [8],MIC [9]
OCCC#Cc1nc(-c2ccc(F)cc2)c(-c2ccncc2)n1CCCc1ccccc1 [RWJ-67657],> 20 µM,> 20 µM,> 20 µM,> 20 µM,> 20 µM,> 20 µM,> 20 µM,> 20 µM,> 20 µM
NC[C@H]1OB(O)c2c(OCCCO)cccc21,> 20 µM,2.5 µM,2.5 µM,> 20 µM,> 20 µM,2.5 µM,5 µM,5 µM,20 µM
C=C(C)[C@@H]1CC[C@]2(C(=O)O)CC[C@]3(C)[C@H](CC[C@@H]4[C@@]5(C)CC[C@H](O)C(C)(C)[C@@H]5CC[C@]43C)[C@@H]12 [BETULINIC ACID],> 20 µM,> 20 µM,> 20 µM,> 20 µM,> 20 µM,> 20 µM,> 20 µM,> 20 µM,> 20 µM
CC(N)C12CC3CC(CC(C3)C1)C2 (configuration not stated) [RIMANTADINE HYDROCHLORIDE],> 20 µM,> 20 µM,> 20 µM,> 20 µM,> 20 µM,> 20 µM,> 20 µM,> 20 µM,> 20 µM
Cc1[nH]c2ccccc2c1CC(=O)N[C@@H](Cc1ccccc1)C(=O)N(C)c1ccccc1,> 20 µM,> 20 µM,> 20 µM,> 20 µM,> 20 µM,> 20 µM,> 20 µM,> 20 µM,> 20 µM
CN(C)CCCOc1ccc(-c2ccc3ncc4c(c3c2)n(C2CCOCC2)c(=O)n4C)cn1,> 20 µM,> 20 µM,> 20 µM,> 20 µM,> 20 µM,> 20 µM,> 20 µM,> 20 µM,> 20 µM
CCCCc1ccc(S(=O)(=O)Nc2cc(C)on2)cc1,> 20 µM,> 20 µM,> 20 µM,> 20 µM,> 20 µM,> 20 µM,> 20 µM,> 20 µM,> 20 µM
O=C(Nc1ccc(F)cc1)c1nn(-c2ccccc2)c(=O)cc1Cl,> 20 µM,> 20 µM,> 20 µM,8.2 µM,> 20 µM,> 20 µM,> 20 µM,> 20 µM,> 20 µM
CC(C)(C)c1ccc(C(Cn2cccc(C(F)(F)F)c2=O)NC2Cc3ccccc3C2)cc1 (configuration not stated),> 20 µM,> 20 µM,> 20 µM,> 20 µM,> 20 µM,> 20 µM,> 20 µM,> 20 µM,> 20 µM
Cc1cc(CCOc2c(C)cc(-c3nnn(C)n3)cc2C)on1,> 20 µM,> 20 µM,> 20 µM,> 20 µM,> 20 µM,> 20 µM,> 20 µM,> 20 µM,> 20 µM
O=C(c1cc(O)nc2ccccc12)N1CCN(c2ccccc2)CC1,> 20 µM,> 20 µM,> 20 µM,> 20 µM,> 20 µM,> 20 µM,> 20 µM,> 20 µM,> 20 µM
Oc1c(C(Nc2ccccn2)c2ccccc2)ccc2cccnc12 (configuration not stated),20 µM,> 20 µM,> 20 µM,19.6 µM,20 µM,> 20 µM,> 20 µM,> 20 µM,> 20 µM
c1ccc(-c2nnc3c4ccccc4c(N4CCNCC4)nn23)cc1,> 20 µM,> 20 µM,> 20 µM,14.2 µM,> 20 µM,> 20 µM,> 20 µM,> 20 µM,> 20 µM
CC(=N)N1CC[C@H](SC2=C(C(=O)O)N3C(=O)[C@@H]([C@@H](C)O)[C@H]3C2)C1,> 20 µM,> 20 µM,> 20 µM,> 20 µM,> 20 µM,> 20 µM,> 20 µM,> 20 µM,> 20 µM
C/C(=N\NC(=O)C1CC1c1ccccc1)c1ccc(NC(=O)c2ccco2)cc1 (configuration not stated),> 20 µM,> 20 µM,> 20 µM,> 20 µM,> 20 µM,> 20 µM,> 20 µM,> 20 µM,> 20 µM
Nc1nc(-c2ccccc2)nc2[nH]nc(Nc3ccc(C(F)(F)F)cc3)c12,> 20 µM,> 20 µM,> 20 µM,> 20 µM,> 20 µM,> 20 µM,> 20 µM,> 20 µM,> 20 µM
CCC(C)NCC(O)Cn1c2ccc(Cl)cc2c2cc(Cl)ccc21 (configuration not stated),> 20 µM,> 20 µM,> 20 µM,6.84 µM,> 20 µM,> 20 µM,> 20 µM,> 20 µM,20 µM
OB1OCc2cc(Cl)ccc21 [AN-2718],5 µM,> 20 µM,> 20 µM,> 20 µM,> 20 µM,> 20 µM,> 20 µM,> 20 µM,> 20 µM
CCOC(=O)/C=C/[C@H](C[C@@H]1CCNC1=O)NC(=O)[C@@H](CC(=O)[C@@H](NC(=O)c1cc(C)on1)C(C)C)Cc1ccc(F)cc1,> 20 µM,> 20 µM,> 20 µM,> 20 µM,> 20 µM,> 20 µM,> 20 µM,> 20 µM,> 20 µM
CCCCN1C[C@H](O)[C@@H](O)[C@H](O)[C@H]1CO,> 20 µM,> 20 µM,> 20 µM,> 20 µM,> 20 µM,> 20 µM,> 20 µM,> 20 µM,> 20 µM
CN(O)C(=O)c1cc2c(CN3CCC[C@H]3C(N)=O)cn(Cc3ccc(F)cc3)c2cn1,> 20 µM,> 20 µM,> 20 µM,> 20 µM,> 20 µM,> 20 µM,> 20 µM,> 20 µM,> 20 µM
COc1cccc(N2CCN(C3=Nc4c(F)cccc4[C@H](CC(=O)O)N3c3cc(C(F)(F)F)ccc3OC)CC2)c1 [LETERMOVIR],> 20 µM,> 20 µM,> 20 µM,> 20 µM,> 20 µM,> 20 µM,> 20 µM,> 20 µM,> 20 µM
NC1C2CC3CC(C2)CC1C3 (configuration not stated),> 20 µM,> 20 µM,> 20 µM,> 20 µM,> 20 µM,> 20 µM,> 20 µM,> 20 µM,> 20 µM
CC(=O)Nc1cc(NS(=O)(=O)c2ccc(Cl)cc2)cc2c(Cl)[nH]nc12,> 20 µM,> 20 µM,> 20 µM,> 20 µM,> 20 µM,> 20 µM,> 20 µM,> 20 µM,> 20 µM
CC(C)c1ccc(COc2cccc(-c3cc([S+](C)[O-])c(C#N)c(=O)[nH]3)c2)cc1 (configuration not stated),> 20 µM,> 20 µM,> 20 µM,> 20 µM,> 20 µM,> 20 µM,> 20 µM,> 20 µM,> 20 µM
C[C@@H](O)[C@H](N)C(=O)NS(=O)(=O)c1cccc(-c2ccc3[nH]ncc3c2)c1,> 20 µM,> 20 µM,> 20 µM,> 20 µM,> 20 µM,> 20 µM,> 20 µM,> 20 µM,> 20 µM
CC(C)c1cc2c(cc1S(=O)(=O)O)[C@@]1(C)CCC[C@@](C)(C(=O)O)[C@@H]1CC2 [ECABET],> 20 µM,> 20 µM,> 20 µM,> 20 µM,> 20 µM,> 20 µM,> 20 µM,> 20 µM,> 20 µM
CN(Cc1ccc(C(C)(C)C)cc1)Cc1cccc2ccccc12 [BUTENAFINE HYDROCHLORIDE],> 20 µM,> 20 µM,> 20 µM,> 20 µM,5 µM,> 20 µM,> 20 µM,> 20 µM,> 20 µM
